# Laboratory results published in publication PMC12102759 (Protein Science : A Publication of the Protein Society, 2025).
# System: G3BP1 NFT2
# Assay type: binding, human
# Conditions: library DMS-CoV, bait G3BP1 NFT2, prey N, listed as aa = residue placed at this position, column sums to 1
sequence,measurement,setting,value
RNAPRITFGGPSDSTG T7K (RNAPRIKFGGPSDSTG),"DMS PSSM value, T (position 7)",peptide RNAPRITFGGPSDSTG,0
APRITFGGPSDSTGSN T13I (APRITFGGPSDSIGSN),"DMS PSSM value, T (position 13)",peptide APRITFGGPSDSTGSN,0.0005621
APRITFGGPSDSTGSN S15D (APRITFGGPSDSTGDN),"DMS PSSM value, S (position 15)",peptide APRITFGGPSDSTGSN,0.002282
APRITFGGPSDSTGSN G7R (APRITFRGPSDSTGSN),"DMS PSSM value, G (position 7)",peptide APRITFGGPSDSTGSN,0
APRITFGGPSDSTGSN S10E (APRITFGGPEDSTGSN),"DMS PSSM value, S (position 10)",peptide APRITFGGPSDSTGSN,0.06961
APRITFGGPSDSTGSN I4W (APRWTFGGPSDSTGSN),"DMS PSSM value, I (position 4)",peptide APRITFGGPSDSTGSN,0
RNAPRITFGGPSDSTG I6S (RNAPRSTFGGPSDSTG),"DMS PSSM value, I (position 6)",peptide RNAPRITFGGPSDSTG,0
APRITFGGPSDSTGSN P9K (APRITFGGKSDSTGSN),"DMS PSSM value, P (position 9)",peptide APRITFGGPSDSTGSN,0
APRITFGGPSDSTGSN F6L (APRITLGGPSDSTGSN),"DMS PSSM value, F (position 6)",peptide APRITFGGPSDSTGSN,0.004454
RNAPRITFGGPSDSTG T7W (RNAPRIWFGGPSDSTG),"DMS PSSM value, T (position 7)",peptide RNAPRITFGGPSDSTG,0
RNAPRITFGGPSDSTG S14G (RNAPRITFGGPSDGTG),"DMS PSSM value, S (position 14)",peptide RNAPRITFGGPSDSTG,0
APRITFGGPSDSTGSN T13S (APRITFGGPSDSSGSN),"DMS PSSM value, T (position 13)",peptide APRITFGGPSDSTGSN,9.878e-5
RNAPRITFGGPSDSTG T15M (RNAPRITFGGPSDSMG),"DMS PSSM value, T (position 15)",peptide RNAPRITFGGPSDSTG,0
RNAPRITFGGPSDSTG G16Q (RNAPRITFGGPSDSTQ),"DMS PSSM value, G (position 16)",peptide RNAPRITFGGPSDSTG,0
APRITFGGPSDSTGSN T5G (APRIGFGGPSDSTGSN),"DMS PSSM value, T (position 5)",peptide APRITFGGPSDSTGSN,0
RNAPRITFGGPSDSTG I6T (RNAPRTTFGGPSDSTG),"DMS PSSM value, I (position 6)",peptide RNAPRITFGGPSDSTG,0
APRITFGGPSDSTGSN T13R (APRITFGGPSDSRGSN),"DMS PSSM value, T (position 13)",peptide APRITFGGPSDSTGSN,0
APRITFGGPSDSTGSN G14M (APRITFGGPSDSTMSN),"DMS PSSM value, G (position 14)",peptide APRITFGGPSDSTGSN,0.3018
APRITFGGPSDSTGSN I4G (APRGTFGGPSDSTGSN),"DMS PSSM value, I (position 4)",peptide APRITFGGPSDSTGSN,0
RNAPRITFGGPSDSTG G10K (RNAPRITFGKPSDSTG),"DMS PSSM value, G (position 10)",peptide RNAPRITFGGPSDSTG,0
RNAPRITFGGPSDSTG S12N (RNAPRITFGGPNDSTG),"DMS PSSM value, S (position 12)",peptide RNAPRITFGGPSDSTG,0
RNAPRITFGGPSDSTG T15R (RNAPRITFGGPSDSRG),"DMS PSSM value, T (position 15)",peptide RNAPRITFGGPSDSTG,0
APRITFGGPSDSTGSN T5V (APRIVFGGPSDSTGSN),"DMS PSSM value, T (position 5)",peptide APRITFGGPSDSTGSN,0
RNAPRITFGGPSDSTG F8D (RNAPRITDGGPSDSTG),"DMS PSSM value, F (position 8)",peptide RNAPRITFGGPSDSTG,0
APRITFGGPSDSTGSN F6A (APRITAGGPSDSTGSN),"DMS PSSM value, F (position 6)",peptide APRITFGGPSDSTGSN,0
APRITFGGPSDSTGSN D11K (APRITFGGPSKSTGSN),"DMS PSSM value, D (position 11)",peptide APRITFGGPSDSTGSN,0
RNAPRITFGGPSDSTG P11A (RNAPRITFGGASDSTG),"DMS PSSM value, P (position 11)",peptide RNAPRITFGGPSDSTG,0
RNAPRITFGGPSDSTG P4N (RNANRITFGGPSDSTG),"DMS PSSM value, P (position 4)",peptide RNAPRITFGGPSDSTG,0
RNAPRITFGGPSDSTG R5K (RNAPKITFGGPSDSTG),"DMS PSSM value, R (position 5)",peptide RNAPRITFGGPSDSTG,0.0001577
APRITFGGPSDSTGSN T5A (APRIAFGGPSDSTGSN),"DMS PSSM value, T (position 5)",peptide APRITFGGPSDSTGSN,0
RNAPRITFGGPSDSTG P11L (RNAPRITFGGLSDSTG),"DMS PSSM value, P (position 11)",peptide RNAPRITFGGPSDSTG,0
RNAPRITFGGPSDSTG G10D (RNAPRITFGDPSDSTG),"DMS PSSM value, G (position 10)",peptide RNAPRITFGGPSDSTG,0
APRITFGGPSDSTGSN T13E (APRITFGGPSDSEGSN),"DMS PSSM value, T (position 13)",peptide APRITFGGPSDSTGSN,0.0383
RNAPRITFGGPSDSTG G9K (RNAPRITFKGPSDSTG),"DMS PSSM value, G (position 9)",peptide RNAPRITFGGPSDSTG,0
RNAPRITFGGPSDSTG A3S (RNSPRITFGGPSDSTG),"DMS PSSM value, A (position 3)",peptide RNAPRITFGGPSDSTG,0
RNAPRITFGGPSDSTG N2I (RIAPRITFGGPSDSTG),"DMS PSSM value, N (position 2)",peptide RNAPRITFGGPSDSTG,0
APRITFGGPSDSTGSN I4E (APRETFGGPSDSTGSN),"DMS PSSM value, I (position 4)",peptide APRITFGGPSDSTGSN,0
